Patent US20130156869A1, “PHARMACEUTICAL COMPOSITION FOR THE TREATMENT OF ALZHEIMER'S DISEASE, METHOD FOR PRODUCING SAME AND USE THEREOF” (Funddacao Arnaldo Vieira de Carvalho, priority 2010, published 2013)

System: patients diagnosed with Alzheimer's disease
Experiment: Mini Mental State Examination (MMSE) performed quarterly in a blinded, placebo-controlled study of lithium microdoses
Type: in vivo, human
Text: Patients clinically diagnosed with Alzheimer's disease by the DSM-IV and NINCDS-ADRDA criteria, and under treatment. The patients were selected by the Mini Mental State Examination (MMSE), which is a questionnaire asked to the patient at each visit, which has a maximum score of 30 points. The Mini-Mental State Examination (MMSE) was designed to be a clinical practice assessment of change in the cognitive status in geriatric patients (Folstein et al, 1975). It examines temporal and spatial orientation, short-term memory (or immediate attention) and recall, calculation, apraxia, and language and visual-spatial skills. It can be used as a screening test for cognitive impairment or as a cognitive assessment of bedside. The Portuguese version of the MMSE (Bertolucci et al, 1994) was considered reliable and adequate for screening and monitoring of ambulatory elderly (Lawrence et al, 2008).
The MMSE includes 11 items, divided into 2 sections. The first requires verbal answers to questions of orientation, memory and attention, the second to questions of reading and writing skills, and it evaluates the skills of appointment, follow verbal and written commands, writing a sentence and copying a drawing (polygons) (Folstein et al, 1975). The cutoff point most often used to indicate a cognitive impairment that deserves further investigation is 24. […] The cutoff point is often adjusted for the education level because a single cut can lose cases among persons with more education, and generate false positives among those with less education. […] Some Brazilian authors studied the measuring characteristics of the scale. Thus, to evaluate the cognitive performance of a population seeking medical screening service of a hospital, Bertolucci applied the MMSE in 530 individuals. We found distinct cutoff points for the diagnosis of cognitive decline, according to the level of education: 13 for illiterates, 18 for low and middle levels of education and 26 for high level of education, with a sensitivity of 82.4%, 75.6% and 80%, and specificity of 97.5%, 96.6% and 95.6%, respectively (Bertolucci et al, 1994). The MMSE was the parameter chosen for inclusion and monitoring of patients of the search for being a test performed on all patients in this clinic and for being a cognitive assessment scale that is practical and useful in the investigation of patients with dementia risk, as in the case of elderly (Almeida, 1998), and it is prescriptive by use and the criteria for dispensing medications adopted by the Ministry of Health. The fact that all medical professionals involved in the evaluation of patients are fully trained and qualified in applying the MMSE was also relevant for this choice. The inclusion of a second test could generate a methodological error that is not measurable. The patients were diagnosed by a neurologist, psychiatrist or geriatrician as suffering from dementia due to Alzheimer's disease, according to the criteria previously mentioned. Patients must present MMSE score equal to or greater than 12 for patients over 4 years of education and greater than or equal to 9 for patients with up to 4 years of education. (Almeida, 1998).
In this preferred embodiment of the invention, the drug tested was the lithium gluconate in a dose of 8.140 mg in 2 mL of solution, which corresponds to 0.28 mg or 0.04 mMol of the metal administered sublingually. Two presentations were used: one containing the lithium gluconate and other containing placebo (anhydrous glucose and purified water). Both presentations were differentiated by a label existing in a group, placebo or lithium, unknown by researchers and by the executors of the MMSE. The patients were selected in a blinded fashion in both groups, with and without stamp by attendance order, being the first with the seal, alternating until the last patient. Formulations were also evaluated with lithium carbonate, respecting the dose of 0.28 mg of metal per dose. […]

O=C([O-])[C@H](O)[C@@H](O)[C@H](O)[C@H](O)CO.[Li+] [Lithium, lithium gluconate]
MMSE scores vs control by age group (61-70 years, F1,62=8.487, p=0.0053, Bonferroni test not significant): significant differences in the treatment factor | MMSE scores vs control by age group (71-80 years, treatment factor F1,302=29.6, p<0.0001): stable maintenance of these values | MMSE scores vs control by age group (>80 years, treatment factor F1,225=19.53, p<0.0001): better scores on the MMSE compared to control subjects | Evolution of MMSE scores in quarterly reviews (all participants, six quarters, treatment factor F1,614=65.81, p<0.0001 vs control): maintenance of these scores | MMSE score (first quarter of treatment, 0.28 mg lithium metal per dose, sublingual, P<0.01 vs control): 20.57±0.66 | MMSE score (quarter 0, immediately before inclusion in the protocol (baseline), n=56, P=0.17 vs control): 19±0.63 | MMSE score (quarter 5 (end of study), 0.28 mg lithium metal per dose, sublingual, P<0.001 vs control): 20±0.9 | Influence of gender on MMSE scores in the treated group (treated men vs treated women, p=0.4448 and p=0.9786): no significant differences in treatment and time factors
